We go through seven compounds from patent publication US6355630B1, “Estra-1,3,5(10)-triene-7α-thioethers” (priority 1997, dated 2002).

Counter-ions that a name gives are not always drawn.

One experiment has as its system rat uterus. Kind of experiment: Rat uterotrophic/antiuterotrophic test procedure. The format is in vivo. The note with it: daily ip, 4-day immature rat. How it is done: Rat Uterotrophic/Antiuterotrophic Test Procedure
The estrogenic and antiestrogenic properties of the compounds were determined in a 4-day immature rat uterotrophic assay (as described previously by L. J. Black and R. L. Goode, Life Sciences, 26, 1453 (1980)). Immature Sprague-Dawley rats (female, 18 days old) were tested in groups of six. […] On day 4 the animals were sacrificed by CO2 asphyxiation and their uteri were removed and stripped of excess lipid, any fluid removed and the wet weight determined. A small section of one horn was submitted for histology and the remainder used to isolate total RNA in order to evaluate complement component 3 gene expression.
Representative compounds of this invention were evaluated in the rat uterotrophic/antiuterotrophic assay to determine their in vivo effects on the rat uterus.

The next experiment concerns Ishikawa uterine cells. Kind of experiment: Ishikawa cell alkaline phosphatase test procedure. It is filed as cell-based, human. The note with it: for Alkaline phosphatase activity, percent of response related to 1 nM 17β-estradiol: 48 h; for Behaviour in the uterine cell line (agonist/antagonist): in words, from Table 2. How it is done: Ishikawa Cell Alkaline Phosphatase Test Procedure
Cell Maintenance and Treatment
Ishikawa cells were maintained in DMEM/F12 (50%:50%) containing phenol red+10% fetal bovine serum and the medium was supplemented with 2 mM Glutamax, 1% Pen/Strap and 1 mM sodium pyruvate. Five days prior to the beginning of each evaluation (treatment of cells) the medium was changed to phenol red-free DMEM/F12+10% dextran coated charcoal stripped serum. On the day before treatment, cells were harvested using 0.5% trypsin/EDTA and plated at a density of 5×10^4 cells/well in 96-well tissue culture plates. […] Cells were treated for 48 h prior to assay. […] Sample population for at each dose was n=8.
Alkaline Phosphatase Test Procedure
At the end of 48 h the media was aspirated and cells were washed three times with phosphate buffered saline (PBS); 50 μL of lysis buffer (0.1 M Tris-HCl, pH 9.8, 0.2% Triton X-100) was added to each well. Plates were placed at −80° C. for a minimum of 15 minutes. Plates were thawed at 37° C. followed by the addition of 150 μL of 0.1 M Tris-HCl, pH 9.8, containing 4 mM para-nitrophenylphosphate (pNPP) to each well (final concentration, 3 mM pNPP).
Absorbance and slope calculations were made using the KineticCalc Application program (Bio-Tek Instruments, Inc., Winooski, Vt.). Results are expressed as the mean +/−S.D. of the rate of enzyme reaction (slope) averaged over the linear portion of the kinetic reaction curve (optical density readings every 5 minutes for 30 minutes absorbance reading).
The four compounds were used as reference standards:
A description of these methods is described by Holinka, C. F., Hata, H., Kuramoto, H. and Gurpide, E. (1986) Effects of steroid hormones and antisteroids on alkaline phosphatase activity in human endometrial cancer cells (Ishikawa Line). Cancer Research, 46:2771-2774, and by Littlefield, B. A., Gurpide, E., Markiewicz, L., McKinley, B. and Hochberg, R. B. (1990) A simple and sensitive microtiter plate estrogen bioassay based on stimulation alkaline phosphatase in Ishikawa cells; Estrogen action of D5 adrenal steroids. Endocrinology, 6:2757-2762.

Another experiment concerns the target T1, human estrogen receptor (Homo sapiens, UniProt P03372).
T1 construct: expressed in transfected cells; host or cells: Chinese Hamster ovary (CHO) cells; ribosome-free cytosol
T1 sequence (P03372 1-595): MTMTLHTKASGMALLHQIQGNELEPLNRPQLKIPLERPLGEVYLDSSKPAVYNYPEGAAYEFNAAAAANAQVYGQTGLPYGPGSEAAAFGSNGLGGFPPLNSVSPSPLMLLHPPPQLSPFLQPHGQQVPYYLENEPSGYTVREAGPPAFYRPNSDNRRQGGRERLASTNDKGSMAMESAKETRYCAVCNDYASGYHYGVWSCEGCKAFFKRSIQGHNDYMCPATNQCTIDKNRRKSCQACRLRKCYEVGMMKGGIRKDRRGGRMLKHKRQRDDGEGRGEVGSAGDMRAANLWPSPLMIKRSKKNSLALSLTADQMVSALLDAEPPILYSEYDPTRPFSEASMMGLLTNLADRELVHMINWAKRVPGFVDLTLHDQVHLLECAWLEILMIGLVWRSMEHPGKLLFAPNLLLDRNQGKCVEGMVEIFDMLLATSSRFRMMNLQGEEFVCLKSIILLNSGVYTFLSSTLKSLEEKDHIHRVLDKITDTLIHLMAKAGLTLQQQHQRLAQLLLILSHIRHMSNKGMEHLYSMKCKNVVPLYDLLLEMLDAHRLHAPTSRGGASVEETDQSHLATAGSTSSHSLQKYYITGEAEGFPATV
Put plainly: In vitro estrogen receptor binding test procedure ([3H]-17β-estradiol competition). The note with it: for IC50: read-out: Receptor IC50. How it is done:
In vitro Estrogen Receptor Binding Test Procedure
Chinese Hamster ovary (CHO) cells overexpressing the estrogen receptor were grown in […] dishes in DMEM+10% dextran coated charcoal, stripped fetal bovine serum. The plates were washed twice with PBS and once with 10 mM Tris-HCl, pH 7.4, 1 mM EDTA. Cells were harvested by scraping the surface and then the cell suspension was placed on ice. Cells were disrupted with a hand-held motorized tissue grinder using two, 10-second bursts. The crude preparation was centrifuged at 12,000 g for 20 minutes followed by a 60 minute spin at 100,000 G to produce a ribosome free cytosol. The cytosol was then frozen and stored at −80° C. Protein concentration of the cytosol was estimated using the BCA assay with reference standard protein.
Binding Test Procedure Conditions
100 uG/100 uL of the receptor preparation was aliquoted per well. […] The plate was incubated at room temperature for 2.5 h. At the end of this incubation period 150 uL of ice-cold dextran coated charcoal (5% activated charcoal coated with 0.05% 69K dextran) was added to each well and the plate was immediately centrifuged at 99 g for 5 minutes at 4° C. 200 uL of the supernatant solution was then removed for scintillation counting. Samples were counted to 2% or 10 minutes, whichever occurs first. […] Also, wells containing radioactivity but no cytosol were processed with charcoal to estimate unremovable DPM of [^3H] […] 96-well plates were used because they have proven to bind the least amount of estradiol.
Counts per minute (CPM) of radioactivity were automatically converted to disintegrated per minute (DPM) by the Beckman LS 7500 Scintillation Counter using a set of quenched standards to generate a H# for each sample. To calculate the % of estradiol binding in the presence of 100 or 500 fold competitor the following formula was applied:
((DPM sample−DPM not removed by charcoal/(DPM estradiol−DPM not removed by charcoal))×100%=% of estradiol binding
For the generation of IC50 curves, % binding is plotted vs compound. […] Values are reported as IC50 values. […] For a description of these methods, see Hulme, E. C., ed. 1992. Receptor-Ligand Interactions: A Practical Approach. IRL Press, New York.(see especially chapter 8).
Compounds were tested for their ability to displace estradiol in a human ER-receptor preparation as described above.

The mark [1] stands for this setting: 1 uM compound + 1 nM E2, antagonist mode.

On to `C[C@]12CC[C@@H]3c4ccc(O)cc4C(=O)[C@@H](Sc4ccc(Br)cc4)[C@H]3[C@@H]1CC[C@@H]2O` [Example 6, (7α,17β) 7-(4-Bromophenyl)thio-3,17-dihydroxy-estra-1,3,5(10)-trien-6-one], for which the Uterine wet weight with rat uterus (1 ug Cpd) turned out to be 29.0 mg; in the experiment on rat uterus (100 ug Cpd), 97.7 mg. Besides, the “Alkaline phosphatase activity, percent of response related to 1 nM 17β-estradiol” value (from here on “Alkaline phosphatase activity, percent”) is reported as 31% in the experiment with Ishikawa uterine cells (0.01 uM compound, agonist mode); 100% with Ishikawa uterine cells (0.1 uM compound, agonist mode); 109% with Ishikawa uterine cells (setting [1]); 104% with Ishikawa uterine cells (1 uM compound, agonist mode). The “Behaviour in the uterine cell line (agonist/antagonist)” value in the experiment with Ishikawa uterine cells is reported as “fully efficacious agonists”. Moreover, the IC50 at human estrogen receptor came to 1500 nM.

In the case of `CCCCN(C)C(=O)CCCCCCCCCCS[C@H]1[C@@H]2[C@H](CC[C@]3(C)[C@@H](O)CC[C@@H]23)c2ccc(O)cc2[C@H]1O` [Example 17, (6α,7α,17β) 7-[10-(N-Butyl-N-methyl-carbamoyl)-decyl]thio-estra-1,3,5(10)-triene-3,6,17-triol], the Uterine wet weight amounted to 36.5 mg with rat uterus (1 ug Cpd) and 64.2 mg with rat uterus (100 ug Cpd). Further, the “Alkaline phosphatase activity, percent” value with Ishikawa uterine cells (0.01 uM compound, agonist mode) is recorded as 0%; in the experiment on Ishikawa uterine cells (0.1 uM compound, agonist mode) it was 0%; with Ishikawa uterine cells (setting [1]), 28%; in the experiment on Ishikawa uterine cells (1 uM compound, agonist mode), 1%. Also, the “Behaviour in the uterine cell line (agonist/antagonist)” value in the experiment on Ishikawa uterine cells is “pure estrogen antagonists”. Besides, the IC50 on human estrogen receptor is 400 nM.

In the case of `C[C@]12CC[C@@H]3c4ccc(O)cc4C[C@@H](Sc4ccc(Br)cc4)[C@H]3[C@@H]1CC[C@@H]2O` [Example 8, (7α,17β) 7-(4-Bromophenyl)thio-estra-1,3,5(10)-triene-3,17-diol], the Uterine wet weight in the experiment with rat uterus (1 ug Cpd) is reported as 35.8 mg; in the experiment on rat uterus (100 ug Cpd) it was 64.7 mg. Also, the “Alkaline phosphatase activity, percent” value amounted to 29% in the experiment with Ishikawa uterine cells (0.01 uM compound, agonist mode); 59% in the experiment on Ishikawa uterine cells (0.1 uM compound, agonist mode); 95% in the experiment on Ishikawa uterine cells (setting [1]); 92% with Ishikawa uterine cells (1 uM compound, agonist mode). Besides, the IC50 on human estrogen receptor came to 800 nM.

As for `CC12CCC3c4ccc(O)cc4CC(Sc4ccc(-c5ccc(C=CC(=O)O)cc5)cc4)C3C1CCC2O` (stereo not drawn) [Example 13, (7α,17β) 7-{4-[4′-(2-Carboxy)-ethenyl]biphenyl}thio-estra-1,3,5(10)-triene-3,17-diol sodium salt], the Uterine wet weight in the experiment on rat uterus (1 ug Cpd) is 48.0 mg; with rat uterus (100 ug Cpd), 55.8 mg. The “Alkaline phosphatase activity, percent” value with Ishikawa uterine cells (0.01 uM compound, agonist mode) stood at 11%; in the experiment on Ishikawa uterine cells (0.1 uM compound, agonist mode) it was 72%; with Ishikawa uterine cells (setting [1]), 101%; with Ishikawa uterine cells (1 uM compound, agonist mode), 95%. Moreover, the IC50 at human estrogen receptor was determined as 400 nM.

As for `C[C@]12CC[C@@H]3c4ccc(O)cc4C[C@@H](Sc4ccc(O)cc4)[C@H]3[C@@H]1CC[C@@H]2O` [Example 4, (7α,17β) 7-(4-Hydroxyphenyl)thio-estra-1,3,5(10)-triene-3,17-diol], the Uterine wet weight is listed as 37.9 mg in the experiment with rat uterus (1 ug Cpd) and 45.4 mg in the experiment with rat uterus (100 ug Cpd). For the same compound, the “Alkaline phosphatase activity, percent” value in the experiment with Ishikawa uterine cells (0.01 uM compound, agonist mode) amounted to 7%; in the experiment with Ishikawa uterine cells (0.1 uM compound, agonist mode), 47%; in the experiment with Ishikawa uterine cells (setting [1]) it was 6%; in the experiment with Ishikawa uterine cells (1 uM compound, agonist mode) it was 57%. Also, the IC50 at human estrogen receptor came out at 300 nM.

Turning to `C[C@]12CC[C@@H]3c4ccc(O)cc4[C@@H](O)[C@@H](Sc4ccc(O)cc4)[C@H]3[C@@H]1CC[C@@H]2O` [Example 3, (6α,7α,17β) 7-(4-Hydroxyphenyl)thio-estra-1,3,5(10)-triene-3,6,17-triol], the values for the Uterine wet weight with rat uterus (1 ug Cpd), with rat uterus (1 ug E2 + 100 ug Cpd) and with rat uterus (100 ug Cpd) were 62.4 mg, 106.1 mg and 99.9 mg, respectively. Further, the “Alkaline phosphatase activity, percent” value in the experiment with Ishikawa uterine cells (0.01 uM compound, agonist mode) was 86%; in the experiment on Ishikawa uterine cells (0.1 uM compound, agonist mode) it was 88%; in the experiment with Ishikawa uterine cells (setting [1]), 97%; in the experiment with Ishikawa uterine cells (1 uM compound, agonist mode) it was 75%. The IC50 at human estrogen receptor is 10 nM.

For the compound `COc1ccc2c(c1)CC(Sc1ccc(OCCN3CCCCC3)cc1)C1C2CCC2(C)C(OC(C)=O)CCC12` (stereo not drawn) [Example 14, (7α,17β) 3-Methoxy-7-{4-[2-(piperdin-1-yl)]ethoxyphenyl}thio-estra-1,3,5(10)-triene-17-ol-17-acetate], the “Alkaline phosphatase activity, percent” value in the experiment on Ishikawa uterine cells (0.01 uM compound, agonist mode) is 2%; in the experiment on Ishikawa uterine cells (0.1 uM compound, agonist mode) it was 3%; in the experiment with Ishikawa uterine cells (setting [1]), 105%; in the experiment on Ishikawa uterine cells (1 uM compound, agonist mode), 39%. On human estrogen receptor (displacement of [3H]17β-estradiol, CHO cell cytosol ER preparation), the “Receptor IC50” value is “No Binding”. Moreover, the “Competition for the human estrogen receptor” value at human estrogen receptor (in words, compounds with 17β-acetate) is recorded as “competed less effectively”.
